Experimental data taken from US10227357B2, “Compounds and methods for kinase modulation, and indications therefor” (Plexxikon Inc., priority 2012, dated 2019).

Assays:
c-kit mutant D816V = target: T1, c-kit mutant D816V (Homo sapiens, UniProt P10721, D816V/DEL694-753); assay: c-Kit mutant D816V biochemical assay, AlphaScreen; settings: c-kit D816V biochemical inhibitory activity; read-out: Biochemical activity (IC50 μM) Kit D816V
T1 construct: residues 551-934, kinase insertion domain residues 694-753 deleted; 6x-histidine (N); made in house; host or cells: E. coli Arctic Express (DE3) RIL (Stratagene)
T1 sequence (P10721 with tags, fused parts or gaps DEL694-753/D816V): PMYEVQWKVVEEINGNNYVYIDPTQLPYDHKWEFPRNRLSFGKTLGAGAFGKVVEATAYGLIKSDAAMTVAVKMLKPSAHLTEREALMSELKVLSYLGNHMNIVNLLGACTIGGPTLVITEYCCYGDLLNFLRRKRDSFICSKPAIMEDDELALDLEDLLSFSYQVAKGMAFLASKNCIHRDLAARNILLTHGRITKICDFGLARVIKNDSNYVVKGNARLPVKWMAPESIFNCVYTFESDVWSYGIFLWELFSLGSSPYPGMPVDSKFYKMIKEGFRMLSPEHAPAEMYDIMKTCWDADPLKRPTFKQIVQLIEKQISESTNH
Summary of the method: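 Purified His-tagged c-Kit D816V (E. coli-expressed) assayed in 25 mM HEPES pH 7.2 with Mg/Mn, 5% DMSO and 10 μM ATP, 30 min at room temperature, 8-point 1:3 dilutions. Phosphorylation detected by AlphaScreen with streptavidin donor and PY20 acceptor beads; IC50 from signal versus concentration.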

c-kit kinase = target: T2, c-kit kinase (Homo sapiens, UniProt P10721); assay: c-Kit biochemical assay, AlphaScreen, 10 μM ATP; settings: c-kit biochemical inhibitory activity; read-out: Biochemical activity (IC50 μM) Kit
T2 construct: The c-kit (or kinase domain thereof) is an active kinase in AlphaScreen; poly-Histidine tag (in-house protein only) (cleaved yes); host or cells: E. coli BL21(DE3)RIL, co-expressed with PTP1B
T2 sequence (P10721 26-976): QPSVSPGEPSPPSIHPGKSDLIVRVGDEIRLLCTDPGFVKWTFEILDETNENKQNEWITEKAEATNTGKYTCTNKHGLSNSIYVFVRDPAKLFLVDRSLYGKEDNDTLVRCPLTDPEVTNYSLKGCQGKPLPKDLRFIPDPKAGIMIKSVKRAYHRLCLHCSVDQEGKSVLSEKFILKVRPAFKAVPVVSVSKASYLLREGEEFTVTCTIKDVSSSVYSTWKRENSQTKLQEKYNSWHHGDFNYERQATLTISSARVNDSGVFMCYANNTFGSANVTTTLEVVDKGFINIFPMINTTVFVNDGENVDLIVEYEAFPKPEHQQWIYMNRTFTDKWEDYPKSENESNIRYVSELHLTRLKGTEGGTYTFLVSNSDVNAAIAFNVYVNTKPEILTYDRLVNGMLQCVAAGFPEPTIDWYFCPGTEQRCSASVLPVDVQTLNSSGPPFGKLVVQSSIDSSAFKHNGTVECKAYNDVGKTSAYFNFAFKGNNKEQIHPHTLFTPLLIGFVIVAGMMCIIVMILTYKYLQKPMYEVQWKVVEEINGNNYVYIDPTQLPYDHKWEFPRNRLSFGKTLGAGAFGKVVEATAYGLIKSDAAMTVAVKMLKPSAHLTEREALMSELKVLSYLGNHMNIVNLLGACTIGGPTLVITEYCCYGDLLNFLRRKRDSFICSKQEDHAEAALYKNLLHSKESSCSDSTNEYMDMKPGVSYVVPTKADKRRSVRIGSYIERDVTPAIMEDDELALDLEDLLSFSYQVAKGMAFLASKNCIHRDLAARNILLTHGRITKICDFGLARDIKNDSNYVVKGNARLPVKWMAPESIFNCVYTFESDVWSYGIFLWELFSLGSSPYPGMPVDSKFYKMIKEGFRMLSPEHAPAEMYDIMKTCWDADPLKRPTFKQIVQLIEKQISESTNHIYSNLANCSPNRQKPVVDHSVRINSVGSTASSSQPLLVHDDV
Summary of the method: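 His-tagged c-Kit expressed in E. coli with co-expressed PTP1B (dephosphorylated), tag removed; 0.1 ng per reaction with biotinylated-peptide substrate in 50 mM HEPES pH 7.2, 5 mM MgCl2, 5 mM MnCl2, 5% DMSO, 10 μM ATP, 1 h at room temperature. Phosphorylation detected by AlphaScreen (streptavidin donor, PY20 acceptor beads); IC50 from 8-point 1:3 dilution series.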

Cc1nc(C)c(-c2cc3c(N4CCC(NS(=O)(=O)c5ccc(OC(F)(F)F)cc5)CC4)ncnc3[nH]2)s1 [P-0664, N-[1-[6-(2,4-dimethylthiazol-5-yl)-7H-pyrrolo[2,3-d]pyrimidin-4-yl]-4-piperidyl]-4-(trifluoromethoxy)benzenesulfonamide]
IC50 (c-kit mutant D816V): 0.0001 to 1 µM | IC50 (c-kit kinase): 1 to 10 µM

CCc1ccc(S(=O)(=O)NC2CCN(c3ncnc4[nH]c(-c5cnn(C)c5)cc34)CC2)s1 [P-0665, 5-ethyl-N-[1-[6-(1-methylpyrazol-4-yl)-7H-pyrrolo[2,3-d]pyrimidin-4-yl]-4-piperidyl]thiophene-2-sulfonamide]
IC50 (c-kit mutant D816V): 0.0001 to 1 µM | IC50 (c-kit kinase): 0.0001 to 1 µM

Cc1nn(C)cc1-c1cc2c(N3CCC(NS(=O)(=O)c4ccc(Cl)cc4)CC3)ncnc2[nH]1 [P-0667, 4-chloro-N-[1-[6-(1,3-dimethylpyrazol-4-yl)-7H-pyrrolo[2,3-d]pyrimidin-4-yl]-4-piperidyl]benzenesulfonamide]
IC50 (c-kit mutant D816V): 0.0001 to 1 µM | IC50 (c-kit kinase): 0.0001 to 1 µM

Cc1nn(C)cc1-c1cc2c(N3CCC(NS(=O)(=O)c4ccc(OC(F)(F)F)cc4)CC3)ncnc2[nH]1 [P-0668, N-[1-[6-(1,3-dimethylpyrazol-4-yl)-7H-pyrrolo[2,3-d]pyrimidin-4-yl]-4-piperidyl]-4-(trifluoromethoxy)benzenesulfonamide]
IC50 (c-kit mutant D816V): 0.0001 to 1 µM | IC50 (c-kit kinase): 0.0001 to 1 µM

O=S(=O)(NC1CCN(c2ncnc3[nH]c(C4=CCCC4)cc23)CC1)c1ccc(OC(F)(F)F)cc1 [P-0669, N-[1-[6-(cyclopenten-1-yl)-7H-pyrrolo[2,3-d]pyrimidin-4-yl]-4-piperidyl]-4-(trifluoromethoxy)benzenesulfonamide]
IC50 (c-kit mutant D816V): 0.0001 to 1 µM | IC50 (c-kit kinase): 0.0001 to 1 µM

Cc1ccc(S(=O)(=O)NC2CCN(c3ncnc4[nH]c(-c5cnn(C)c5)cc34)CC2C)cc1 (stereo not drawn) [P-0672, 4-methyl-N-[3-methyl-1-[6-(1-methylpyrazol-4-yl)-7H-pyrrolo[2,3-d]pyrimidin-4-yl]-4-piperidyl]benzenesulfonamide]
IC50 (c-kit mutant D816V): 0.0001 to 1 µM | IC50 (c-kit kinase): 0.0001 to 1 µM

CN(C)c1ncc(-c2cc3c(N4CCC(NS(=O)(=O)c5ccc(OC(F)(F)F)cc5)CC4)ncnc3[nH]2)s1 [P-0673, N-[1-[6-[2-(dimethylamino)thiazol-5-yl]-7H-pyrrolo[2,3-d]pyrimidin-4-yl]-4-piperidyl]-4-(trifluoromethoxy)benzenesulfonamide]
IC50 (c-kit mutant D816V): 1 to 10 µM | IC50 (c-kit kinase): 1 to 10 µM

CCc1ccc(S(=O)(=O)NC2CCN(c3ncnc4[nH]c(C)cc34)CC2)cc1 [P-0674, 4-ethyl-N-[1-(6-methyl-7H-pyrrolo[2,3-d]pyrimidin-4-yl)-4-piperidyl]benzenesulfonamide]
IC50 (c-kit mutant D816V): 1 to 10 µM | IC50 (c-kit kinase): 10 to 200 µM

Cc1ccc(S(=O)(=O)NC2CCN(c3ncnc4[nH]c(C)cc34)CC2)cc1 [P-0675, 4-methyl-N-[1-(6-methyl-7H-pyrrolo[2,3-d]pyrimidin-4-yl)-4-piperidyl]benzenesulfonamide]
IC50 (c-kit mutant D816V): 1 to 10 µM | IC50 (c-kit kinase): 10 to 200 µM

CCc1ccc(S(=O)(=O)NC2CCN(c3ncnc4[nH]c(-c5cnn(C)c5)cc34)CC2)cc1 [P-0676, 4-ethyl-N-[1-[6-(1-methylpyrazol-4-yl)-7H-pyrrolo[2,3-d]pyrimidin-4-yl]-4-piperidyl]benzenesulfonamide]
IC50 (c-kit mutant D816V): 0.0001 to 1 µM | IC50 (c-kit kinase): 0.0001 to 1 µM

CC(C)(NC(=O)N1CC=C(c2ncnc3cc(-c4ccc(F)cc4)sc23)CC1)c1ccccc1 [P-0679, 4-[6-(4-fluorophenyl)thieno[3,2-d]pyrimidin-4-yl]-N-(1-methyl-1-phenyl-ethyl)-3,6-dihydro-2H-pyridine-1-carboxamide]
IC50 (c-kit mutant D816V): 0.0001 to 1 µM | IC50 (c-kit kinase): 1 to 10 µM

COc1cccc([C@H](C)NC(=O)N2CCN(c3ncnc4cc(N5CCC(F)(F)CC5)sc34)CC2(C)C)c1 [P-0680, 4-[6-(4,4-difluoro-1-piperidyl)thieno[3,2-d]pyrimidin-4-yl]-N-[(1S)-1-(3-methoxyphenyl)ethyl]-2,2-dimethyl-piperazine-1-carboxamide]
IC50 (c-kit mutant D816V): 0.0001 to 1 µM | IC50 (c-kit kinase): 1 to 10 µM

CCOC(=O)N1CCN(c2cc3ncnc(N4CCN(C(=O)N[C@@H](C)c5cccc(OC)c5)C(C)(C)C4)c3s2)CC1 [P-0681, ethyl 4-[4-[4-[[(1S)-1-(3-methoxyphenyl)ethyl]carbamoyl]-3,3-dimethyl-piperazin-1-yl]thieno[3,2-d]pyrimidin-6-yl]piperazine-1-carboxylate]
IC50 (c-kit mutant D816V): 0.0001 to 1 µM | IC50 (c-kit kinase): 1 to 10 µM

COc1cccc([C@H](C)NC(=O)N2CCN(c3ncnc4[nH]c(C)cc34)C[C@H]2C)c1 [P-0683, (2R)-N-[(1S)-1-(3-methoxyphenyl)ethyl]-2-methyl-4-(6-methyl-7H-pyrrolo[2,3-d]pyrimidin-4-yl)piperazine-1-carboxamide]
IC50 (c-kit mutant D816V): 10 to 200 µM | IC50 (c-kit kinase): 10 to 200 µM

Cc1cc2c(N3CCN(C(=O)N[C@@H](C)c4cccc(F)c4)[C@H](C)C3)ncnc2[nH]1 [P-0684, (2R)-N-[(1S)-1-(3-fluorophenyl)ethyl]-2-methyl-4-(6-methyl-7H-pyrrolo[2,3-d]pyrimidin-4-yl)piperazine-1-carboxamide]
IC50 (c-kit mutant D816V): 0.0001 to 1 µM | IC50 (c-kit kinase): 10 to 200 µM

COc1cccc([C@H](C)NC(=O)N2CCN(c3ncnc4[nH]c(-c5ccc(C#N)cc5)cc34)CC2(C)C)c1 [P-0687, 4-[6-(4-cyanophenyl)-7H-pyrrolo[2,3-d]pyrimidin-4-yl]-N-[(1S)-1-(3-methoxyphenyl)ethyl]-2,2-dimethyl-piperazine-1-carboxamide]
IC50 (c-kit mutant D816V): 1 to 10 µM | IC50 (c-kit kinase): 10 to 200 µM

C[C@H](NC(=O)N1CCN(c2ncnc3[nH]c(-c4ccc(C#N)cc4)cc23)CC1(C)C)c1cccc(F)c1 [P-0688, 4-[6-(4-cyanophenyl)-7H-pyrrolo[2,3-d]pyrimidin-4-yl]-N-[(1S)-1-(3-fluorophenyl)ethyl]-2,2-dimethyl-piperazine-1-carboxamide]
IC50 (c-kit mutant D816V): 0.0001 to 1 µM | IC50 (c-kit kinase): 1 to 10 µM

C[C@H](NC(=O)N1CCN(c2ncnc3[nH]c(-c4ccc(C#N)cc4)cc23)CC1(C)C)c1cccc(Cl)c1 [P-0689, N-[(1S)-1-(3-chlorophenyl)ethyl]-4-[6-(4-cyanophenyl)-7H-pyrrolo[2,3-d]pyrimidin-4-yl]-2,2-dimethyl-piperazine-1-carboxamide]
IC50 (c-kit mutant D816V): 0.0001 to 1 µM | IC50 (c-kit kinase): 0.0001 to 1 µM

C[C@H](NC(=O)N1CCN(c2ncnc3[nH]c(-c4ccc(C#N)cc4)cc23)C[C@H]1C)c1ccc(F)cc1 [P-0690, (2R)-4-[6-(4-cyanophenyl)-7H-pyrrolo[2,3-d]pyrimidin-4-yl]-N-[(1S)-1-(4-fluorophenyl)ethyl]-2-methyl-piperazine-1-carboxamide]
IC50 (c-kit mutant D816V): 0.0001 to 1 µM | IC50 (c-kit kinase): 10 to 200 µM

C[C@H](NC(=O)N1CCN(c2ncnc3[nH]c(-c4ccc(C#N)cc4)cc23)C[C@H]1C)c1ccc(Cl)cc1 [P-0691, (2R)-N-[(1S)-1-(4-chlorophenyl)ethyl]-4-[6-(4-cyanophenyl)-7H-pyrrolo[2,3-d]pyrimidin-4-yl]-2-methyl-piperazine-1-carboxamide]
IC50 (c-kit mutant D816V): 0.0001 to 1 µM | IC50 (c-kit kinase): 10 to 200 µM

COc1cccc([C@H](C)NC(=O)N2CCN(c3ncnc4[nH]c(-c5ccc(C#N)cc5)cc34)C[C@H]2C)c1 [P-0692, (2R)-4-[6-(4-cyanophenyl)-7H-pyrrolo[2,3-d]pyrimidin-4-yl]-N-[(1S)-1-(3-methoxyphenyl)ethyl]-2-methyl-piperazine-1-carboxamide]
IC50 (c-kit mutant D816V): 0.0001 to 1 µM | IC50 (c-kit kinase): 1 to 10 µM

C[C@H](NC(=O)N1CCN(c2ncnc3[nH]c(-c4ccc(C#N)cc4)cc23)C[C@H]1C)c1cccc(Cl)c1 [P-0694, (2R)-N-[(1S)-1-(3-chlorophenyl)ethyl]-4-[6-(4-cyanophenyl)-7H-pyrrolo[2,3-d]pyrimidin-4-yl]-2-methyl-piperazine-1-carboxamide]
IC50 (c-kit mutant D816V): 0.0001 to 1 µM | IC50 (c-kit kinase): 10 to 200 µM

COc1cc(-c2cc3c(N4CCN(C(=O)N[C@@H](C)c5ccc(F)cc5)[C@H](C)C4)ncnc3[nH]2)ccn1 [P-0695, (2R)-N-[(1S)-1-(4-fluorophenyl)ethyl]-4-[6-(2-methoxy-4-pyridyl)-7H-pyrrolo[2,3-d]pyrimidin-4-yl]-2-methyl-piperazine-1-carboxamide]
IC50 (c-kit mutant D816V): 0.0001 to 1 µM | IC50 (c-kit kinase): 10 to 200 µM

C[C@H](NC(=O)N1CCN(c2ncnc3[nH]c(-c4ccc(C#N)cc4)cc23)CC1)c1cccc(Cl)c1 [P-0697, N-[(1S)-1-(3-chlorophenyl)ethyl]-4-[6-(4-cyanophenyl)-7H-pyrrolo[2,3-d]pyrimidin-4-yl]piperazine-1-carboxamide]
IC50 (c-kit mutant D816V): 0.0001 to 1 µM | IC50 (c-kit kinase): 1 to 10 µM

C[C@H](NC(=O)N1CCN(c2ncnc3[nH]c(-c4ccc(F)cc4)cc23)CC1(C)C)c1ccc(Cl)cc1 [P-0700, N-[(1S)-1-(4-chlorophenyl)ethyl]-4-[6-(4-fluorophenyl)-7H-pyrrolo[2,3-d]pyrimidin-4-yl]-2,2-dimethyl-piperazine-1-carboxamide]
IC50 (c-kit mutant D816V): 0.0001 to 1 µM | IC50 (c-kit kinase): 1 to 10 µM

O=C(NCc1cccs1)N1CCN(c2ncnc3cc(-c4ccc(F)cc4)sc23)CC1 [P-0709, 4-[6-(4-fluorophenyl)thieno[3,2-d]pyrimidin-4-yl]-N-(2-thienylmethyl)piperazine-1-carboxamide]
IC50 (c-kit mutant D816V): 0.0001 to 1 µM | IC50 (c-kit kinase): 10 to 200 µM

COc1cc(-c2cc3c(N4CCN(C(=O)N[C@@H](C)c5ccc(Cl)cc5)C(C)(C)C4)ncnc3[nH]2)ccn1 [P-0710, N-[(1S)-1-(4-chlorophenyl)ethyl]-4-[6-(2-methoxy-4-pyridyl)-7H-pyrrolo[2,3-d]pyrimidin-4-yl]-2,2-dimethyl-piperazine-1-carboxamide]
IC50 (c-kit mutant D816V): 0.0001 to 1 µM | IC50 (c-kit kinase): 10 to 200 µM
